A value given as a limit tells only on which side of the number the result lay.

As a reminder, the IC50 is the midpoint of a concentration-inhibition curve.

Sequence of Pol theta (1-899) (O75417 1-899): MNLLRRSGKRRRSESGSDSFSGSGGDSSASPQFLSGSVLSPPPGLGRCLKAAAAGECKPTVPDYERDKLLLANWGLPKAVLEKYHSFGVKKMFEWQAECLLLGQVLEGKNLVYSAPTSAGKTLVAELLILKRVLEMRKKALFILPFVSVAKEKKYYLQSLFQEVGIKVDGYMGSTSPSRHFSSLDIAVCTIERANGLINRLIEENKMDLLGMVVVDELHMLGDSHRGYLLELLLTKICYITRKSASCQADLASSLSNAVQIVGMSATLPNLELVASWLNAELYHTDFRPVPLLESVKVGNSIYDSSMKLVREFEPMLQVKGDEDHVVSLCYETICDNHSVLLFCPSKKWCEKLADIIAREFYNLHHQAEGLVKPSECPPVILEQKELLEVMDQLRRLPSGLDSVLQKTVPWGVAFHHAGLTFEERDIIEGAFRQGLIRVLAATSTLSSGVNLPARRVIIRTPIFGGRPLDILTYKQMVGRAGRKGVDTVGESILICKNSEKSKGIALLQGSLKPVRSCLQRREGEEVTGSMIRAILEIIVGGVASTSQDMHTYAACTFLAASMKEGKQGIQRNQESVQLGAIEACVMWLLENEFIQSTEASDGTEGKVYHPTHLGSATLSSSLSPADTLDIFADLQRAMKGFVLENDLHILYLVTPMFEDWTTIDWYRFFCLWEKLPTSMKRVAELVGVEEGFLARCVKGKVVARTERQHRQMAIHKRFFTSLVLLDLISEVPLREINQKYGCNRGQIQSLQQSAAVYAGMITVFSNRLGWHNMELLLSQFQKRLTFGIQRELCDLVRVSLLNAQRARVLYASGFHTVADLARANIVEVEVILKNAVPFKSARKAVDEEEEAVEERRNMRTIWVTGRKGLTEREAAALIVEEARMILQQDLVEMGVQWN

The assay addresses Pol theta (1-899) (Homo sapiens (Human), UniProt O75417). Description: Pol theta ATPase activity, NADH oxidation-coupled enzymatic assay. To be noted: Pol theta (1-899) 10 nM, ATP, dT50 ssDNA, absorbance 340 nm, 10-point dilution series; read-out: ATPase NADH coupling:Standard Screening:hPolQ IC50. The class given is biochemical. The essentials: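 Pol theta (1-899), 10 nM, preincubated 15 min at RT with 10-point compound series in Tris pH 7.80/KCl/MgCl2 buffer, then given 100 μM ATP plus 300 nM dT50 ssDNA with PK/LDH-coupled NADH oxidation. A340 followed for 30 min; rate slopes fitted with a four-parameter model for IC50.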
Consider `O=C(Nc1nnc(OCc2ccc(Cl)cc2)s1)c1cccnc1-c1ccccc1` [Example 94, N-(5-((4-chlorobenzyl)oxy)-1,3,4-thiadiazol-2-yl)-2-phenylnicotinamide], for which the half-maximal inhibitory concentration (IC50) lay in the range of 1000 to 10000 nM.

As to `COc1c(C#N)cccc1-c1cnccc1C(=O)Nc1nnc(OCc2ccc(Cl)cc2)s1` [Example 159, N-(5-((4-chlorobenzyl)oxy)-1,3,4-thiadiazol-2-yl)-3-(3-cyano-2-methoxyphenyl)isonicotinamide], the 50% inhibitory concentration (IC50) is not above 200 nM.

Consider `COc1cc(F)ccc1-c1ccncc1C(=O)Nc1nnc(OCc2ccc(Cl)cc2)s1` [Example 155, N-[5-[(4-chlorophenyl)methoxy]-1,3,4-thiadiazol-2-yl]-4-(4-fluoro-2-methoxyphenyl)pyridine-3-carboxamide], for which the IC50 was not above 200 nM.

For the compound `COc1ccccc1-c1cnc(C#N)cc1C(=O)Nc1nnc(OCc2ccc(Cl)cc2)s1` [Example 151, N-(5-((4-chlorobenzyl)oxy)-1,3,4-thiadiazol-2-yl)-2-cyano-5-(2-methoxyphenyl)isonicotinamide], the IC50 was not above 200 nM.

In the case of `COc1ccccc1-c1cc(CN)ncc1C(=O)Nc1nnc(OCc2ccc(Cl)cn2)s1` [Example 204, 6-(aminomethyl)-N-[5-[(5-chloropyridin-2-yl)methoxy]-1,3,4-thiadiazol-2-yl]-4-(2-methoxyphenyl)pyridine-3-carboxamide], the IC50 fell in the range of 1000 to 10000 nM.

In the case of `COc1ccccc1-c1cc(C)ncc1C(=O)Nc1nnc(OCc2ccc(C3(C#N)CC3)cn2)s1` [Example 220, N-(5-[[5-(1-cyanocyclopropyl)pyridin-2-yl]methoxy]-1,3,4-thiadiazol-2-yl)-4-(2-methoxyphenyl)-6-methylpyridine-3-carboxamide], the IC50 was not above 200 nM.

Turning to `COc1ccccc1-c1cncnc1C(=O)Nc1nnc(OCc2ccc(Cl)cn2)s1` [Example 209, N-(5-((5-chloropyridin-2-yl)methoxy)-1,3,4-thiadiazol-2-yl)-5-(2-methoxyphenyl)pyrimidine-4-carboxamide], the concentration for half-maximal inhibition (IC50) is not above 200 nM.

With `O=C(Nc1nnc(OCc2ccc(Cl)cc2)s1)c1cccnc1N1CCCOCC1` [Example 6, N-(5-((4-chlorobenzyl)oxy)-1,3,4-thiadiazol-2-yl)-2-(1,4-oxazepan-4-yl)nicotinamide], the IC50 lay in the range of 200 to 500 nM.

Consider `O=C(Nc1nnc(OCc2ccc(Cl)cc2)s1)c1ccncc1N1C2CCC1COC2` [Example 176, N-[5-[(4-chlorophenyl)methoxy]-1,3,4-thiadiazol-2-yl]-3-[3-oxa-8-azabicyclo[3.2.1]octan-8-yl]pyridine-4-carboxamide], for which the 50% inhibitory concentration (IC50) is not above 200 nM.

Take `Cc1cc(-c2c(F)cccc2OC(F)F)c(C(=O)Nc2nnc(OCc3ccc(Cl)cc3)s2)cn1` [Example 189, N-(5-((4-chlorobenzyl)oxy)-1,3,4-thiadiazol-2-yl)-4-(2-(difluoromethoxy)-6-fluorophenyl)-6-methylnicotinamide]: the IC50 was not above 200 nM.

As to `COc1ccccc1-c1c(C(=O)Nc2nnc(OCc3ccc(Cl)cn3)s2)cnc(C)c1F` [Example 215, N-(5-((5-chloropyridin-2-yl)methoxy)-1,3,4-thiadiazol-2-yl)-5-fluoro-4-(2-methoxyphenyl)-6-methylnicotinamide], the concentration for half-maximal inhibition (IC50) was not above 200 nM.

Turning to `O=C(Nc1nnc(OCc2ccc(Cl)cc2)s1)c1cc(C#CCO)ncc1-c1ccccc1OC(F)F` [Example 147, N-[5-[(4-chlorophenyl)methoxy]-1,3,4-thiadiazol-2-yl]-5-[2-(difluoromethoxy)phenyl]-2-(3-hydroxyprop-1-yn-1-yl)pyridine-4-carboxamide], the IC50 was not above 200 nM.

With `C[C@@H]1COC[C@@H](C)N1c1cnccc1C(=O)Nc1nnc(OCc2ccc(Cl)cc2)s1` [Example 144, N-(5-((4-chlorobenzyl)oxy)-1,3,4-thiadiazol-2-yl)-3-((3R,5R)-3,5-dimethylmorpholino)isonicotinamide], the IC50 was not above 200 nM.

Consider `O=C(Nc1nnc(OCc2ccc(Cl)cc2)s1)c1c[nH]c(=O)cc1N1CCOCC1` [Example 41, N-(5-((4-chlorobenzyl)oxy)-1,3,4-thiadiazol-2-yl)-4-morpholino-6-oxo-1,6-dihydropyridine-3-carboxamide or its tautomer N-(5-((4-chlorobenzyl)oxy)-1,3,4-thiadiazol-2-yl)-6-hydroxy-4-morpholinonicotinamide], for which the concentration for half-maximal inhibition (IC50) was 1000 to 10000 nM.

As to `O=C(Nc1nnc(OCc2ccc(Cl)cc2)s1)c1cccnc1N1CCOc2ccccc21` [Example 66, N-(5-((4-chlorobenzyl)oxy)-1,3,4-thiadiazol-2-yl)-2-(2,3-dihydro-4H-benzo[b][1,4]oxazin-4-yl)nicotinamide], the IC50 fell in the range of 1000 to 10000 nM.

As to `N#Cc1ccc(C(=O)Nc2nnc(OCc3ccc(Br)cc3)s2)c(N2CCNC(=O)C2)n1` [Example 88, N-(5-((4-bromobenzyl)oxy)-1,3,4-thiadiazol-2-yl)-6-cyano-2-(3-oxopiperazin-1-yl)nicotinamide], the IC50 is not above 200 nM.

Regarding `Cc1cc(-c2c(C)n[nH]c2C)c(C(=O)Nc2nnc(OCc3ccc(Cl)cn3)s2)cn1` [Example 196, N-(5-((5-chloropyridin-2-yl)methoxy)-1,3,4-thiadiazol-2-yl)-4-(3,5-dimethyl-1H-pyrazol-4-yl)-6methylnicotinamide], the IC50 is not above 200 nM.

In the case of `CS(=O)(=O)N1CCN(c2ncccc2C(=O)Nc2nnc(OCc3ccc(Cl)cn3)s2)CC1` [Example 23, N-(5-((5-chloropyridin-2-yl)methoxy)-1,3,4-thiadiazol-2-yl)-2-(4-(methylsulfonyl)piperazin-1-yl)nicotinamide], the IC50 was 1000 to 10000 nM.

As to `O=C(Nc1nnc(OCc2ccc(Br)cc2)s1)c1cccnc1N1CCOCC1` [Example 40, N-(5-((4-bromobenzyl)oxy)-1,3,4-thiadiazol-2-yl)-2-morpholinonicotinamide], the IC50 lay in the range of 200 to 500 nM.

With `O=C(Nc1nnc(OCc2ccc(Cl)cc2)s1)c1cccnc1-c1cc[nH]c(=O)c1` [Example 74, N-(5-((4-chlorobenzyl)oxy)-1,3,4-thiadiazol-2-yl)-2′-hydroxy-[2,4′-bipyridine]-3-carboxamide or its tautomer N-(5-((4-chlorobenzyl)oxy)-1,3,4-thiadiazol-2-yl)-2′-oxo-1′,2′-dihydro-[2,4′-bipyridine]-3-carboxamide], the IC50 was 500 to 1000 nM.

As to `COc1ccccc1-c1cc(C2CC2)ncc1C(=O)Nc1nnc(OCc2ccc(Cl)cn2)s1` [Example 216, N-[5-[(5-chloropyridin-2-yl)methoxy]-1,3,4-thiadiazol-2-yl]-6-cyclopropyl-4-(2-methoxyphenyl)pyridine-3-carboxamide], the IC50 was not above 200 nM.

As to `COc1ccccc1-c1cc(C)ncc1C(=O)Nc1nnc(OCc2cnc(Cl)cn2)s1` [Example 212, N-[5-[(5-chloropyrazin-2-yl)methoxy]-1,3,4-thiadiazol-2-yl]-4-(2-methoxyphenyl)-6-methylpyridine-3-carboxamide], the half-inhibitory concentration (IC50) is not above 200 nM.

Consider `O=C(Nc1nnc(OCc2ccc(C3COC3)cc2)s1)c1cccnc1N1CCOCC1` [Example 56, 2-morpholino-N-(5-((4-(oxetan-3-yl)benzyl)oxy)-1,3,4-thiadiazol-2-yl)nicotinamide], for which the IC50 was 1000 to 10000 nM.

`COc1ccccc1-c1cc(CO)ncc1C(=O)Nc1nnc(OCc2ccc(Cl)cc2)s1` [Example 102, N-(5-((4-chlorobenzyl)oxy)-1,3,4-thiadiazol-2-yl)-6-(hydroxymethyl)-4-(2-methoxyphenyl)nicotinamide]: the concentration for half-maximal inhibition (IC50) was not above 200 nM.

(Values after patent US12509454B2, “Thiadiazolyl derivatives” (IDEAYA Biosciences, Inc., priority 2019, dated 2025).)
